Experiments:
Test in all cases: relative viability (nuclei count vs DMSO), 5 days (fraction); higher = more cells survive
LXF-289 = test system: LXF-289
How it was run: (§1)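 For relative viability, nuclei counts in treated wells were divided by those in vehicle wells. Lung cancer cell lines had been pin-tool dosed in 1536-well plates the day after seeding and cultured for 5 days, then fixed and stained in one step (final 0.05% Triton X-100, 1% formaldehyde, 1 ug/ml Hoechst) and imaged at 4×. Doses were one drug alone or a fixed anchor-drug dose plus five library-drug doses (not always all listed) in √10 steps, and values are duplicate-plate medians.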

EPLC-272H = test system: EPLC-272H
How it was run: as §1

SW 1573 = test system: SW 1573
How it was run: as §1

LCLC-103H = test system: LCLC-103H
How it was run: as §1

SW 900 = test system: SW 900
How it was run: as §1

EMC-BAC-2 = test system: EMC-BAC-2
How it was run: as §1

RERF-LC-KJ = test system: RERF-LC-KJ
How it was run: as §1

NCI-H1975 = test system: NCI-H1975
How it was run: as §1

ChaGo-K-1 = test system: ChaGo-K-1
How it was run: as §1

NCI-H2085 = test system: NCI-H2085
How it was run: as §1

NCI-H2405 = test system: NCI-H2405
How it was run: as §1

LU99A = test system: LU99A
How it was run: as §1

NCI-H23 = test system: NCI-H23
How it was run: as §1

LOU-NH91 = test system: LOU-NH91
How it was run: as §1

NCI-H2126 = test system: NCI-H2126
How it was run: as §1

HCC-827 = test system: HCC-827
How it was run: as §1

SK-LU-1 = test system: SK-LU-1
How it was run: as §1

HCC-366 = test system: HCC-366
How it was run: as §1

HCC-78 = test system: HCC-78
How it was run: as §1

HCC-44 = test system: HCC-44
How it was run: as §1

NCI-H3122 = test system: NCI-H3122
How it was run: as §1

NCI-H1666 = test system: NCI-H1666
How it was run: as §1

LK-2 = test system: LK-2
How it was run: as §1

Compound: Clc1ccc(Nc2nnc(Cc3ccncc3)c3ccccc23)cc1 [Vatalanib] + CC(=O)c1c(C)c2cnc(Nc3ccc(N4CCNCC4)cn3)nc2n(C2CCCC2)c1=O [Palbociclib] (partner 0.5 µM)
- relative viability (LXF-289; first compound 0.04 µM): 0.611
- relative viability (LXF-289; first compound 0.1265 µM): 0.544
- relative viability (LXF-289; first compound 0.4 µM): 0.599
- relative viability (LXF-289; first compound 1.265 µM): 0.585
- relative viability (LXF-289; first compound 4 µM): 0.556
- relative viability (EPLC-272H; first compound 0.04 µM): 0.361
- relative viability (EPLC-272H; first compound 0.1265 µM): 0.344
- relative viability (EPLC-272H; first compound 0.4 µM): 0.372
- relative viability (EPLC-272H; first compound 1.265 µM): 0.315
- relative viability (EPLC-272H; first compound 4 µM): 0.358
- relative viability (SW 1573; first compound 0.1265 µM): 0.403
- relative viability (SW 1573; first compound 0.4 µM): 0.461
- relative viability (SW 1573; first compound 1.265 µM): 0.361
- relative viability (SW 1573; first compound 4 µM): 0.368
- relative viability (LCLC-103H; first compound 0.04 µM): 0.506
- relative viability (LCLC-103H; first compound 0.1265 µM): 0.452
- relative viability (LCLC-103H; first compound 0.4 µM): 0.503
- relative viability (LCLC-103H; first compound 1.265 µM): 0.443
- relative viability (LCLC-103H; first compound 4 µM): 0.513
- relative viability (SW 900; first compound 0.04 µM): 0.504
- relative viability (SW 900; first compound 0.1265 µM): 0.523
- relative viability (SW 900; first compound 0.4 µM): 0.534
- relative viability (SW 900; first compound 1.265 µM): 0.614
- relative viability (SW 900; first compound 4 µM): 0.547
- relative viability (EMC-BAC-2; first compound 0.04 µM): 0.545
- relative viability (EMC-BAC-2; first compound 0.1265 µM): 0.524
- relative viability (EMC-BAC-2; first compound 0.4 µM): 0.563
- relative viability (EMC-BAC-2; first compound 4 µM): 0.512
- relative viability (RERF-LC-KJ; first compound 0.04 µM): 1.08
- relative viability (RERF-LC-KJ; first compound 0.1265 µM): 1.05
- relative viability (RERF-LC-KJ; first compound 0.4 µM): 1.02
- relative viability (RERF-LC-KJ; first compound 1.265 µM): 1.02
- relative viability (RERF-LC-KJ; first compound 4 µM): 0.903
- relative viability (NCI-H1975; first compound 0.04 µM): 0.651
- relative viability (NCI-H1975; first compound 0.1265 µM): 0.5
- relative viability (NCI-H1975; first compound 0.4 µM): 0.768
- relative viability (NCI-H1975; first compound 1.265 µM): 0.528
- relative viability (NCI-H1975; first compound 4 µM): 0.489
- relative viability (ChaGo-K-1; first compound 0.04 µM): 0.998
- relative viability (ChaGo-K-1; first compound 0.1265 µM): 0.885
- relative viability (ChaGo-K-1; first compound 0.4 µM): 0.945
- relative viability (ChaGo-K-1; first compound 1.265 µM): 0.969
- relative viability (ChaGo-K-1; first compound 4 µM): 0.961
- relative viability (NCI-H2085; first compound 0.04 µM): 0.457
- relative viability (NCI-H2085; first compound 0.1265 µM): 0.469
- relative viability (NCI-H2085; first compound 0.4 µM): 0.492
- relative viability (NCI-H2085; first compound 1.265 µM): 0.433
- relative viability (NCI-H2085; first compound 4 µM): 0.475
- relative viability (NCI-H2405; first compound 0.04 µM): 0.555
- relative viability (NCI-H2405; first compound 0.1265 µM): 0.496
- relative viability (NCI-H2405; first compound 0.4 µM): 0.54
- relative viability (NCI-H2405; first compound 4 µM): 0.529
- relative viability (LU99A; first compound 0.04 µM): 0.418
- relative viability (LU99A; first compound 0.1265 µM): 0.383
- relative viability (LU99A; first compound 0.4 µM): 0.435
- relative viability (LU99A; first compound 1.265 µM): 0.355
- relative viability (LU99A; first compound 4 µM): 0.415
- relative viability (NCI-H23; first compound 0.04 µM): 0.469
- relative viability (NCI-H23; first compound 0.1265 µM): 0.435
- relative viability (NCI-H23; first compound 0.4 µM): 0.533
- relative viability (NCI-H23; first compound 1.265 µM): 0.473
- relative viability (NCI-H23; first compound 4 µM): 0.468
- relative viability (LOU-NH91; first compound 0.04 µM): 0.549
- relative viability (LOU-NH91; first compound 0.1265 µM): 0.483
- relative viability (LOU-NH91; first compound 0.4 µM): 0.542
- relative viability (LOU-NH91; first compound 1.265 µM): 0.457
- relative viability (LOU-NH91; first compound 4 µM): 0.55
- relative viability (NCI-H2126; first compound 0.04 µM): 0.314
- relative viability (NCI-H2126; first compound 0.1265 µM): 0.34
- relative viability (NCI-H2126; first compound 0.4 µM): 0.383
- relative viability (NCI-H2126; first compound 1.265 µM): 0.335
- relative viability (NCI-H2126; first compound 4 µM): 0.363
- relative viability (HCC-827; first compound 0.04 µM): 0.484
- relative viability (HCC-827; first compound 0.1265 µM): 0.406
- relative viability (HCC-827; first compound 1.265 µM): 0.49
- relative viability (HCC-827; first compound 4 µM): 0.475
- relative viability (SK-LU-1; first compound 0.04 µM): 0.398
- relative viability (SK-LU-1; first compound 0.1265 µM): 0.415
- relative viability (SK-LU-1; first compound 0.4 µM): 0.499
- relative viability (SK-LU-1; first compound 1.265 µM): 0.415
- relative viability (SK-LU-1; first compound 4 µM): 0.385
- relative viability (HCC-366; first compound 0.04 µM): 0.462
- relative viability (HCC-366; first compound 0.1265 µM): 0.348
- relative viability (HCC-366; first compound 0.4 µM): 0.457
- relative viability (HCC-366; first compound 1.265 µM): 0.391
- relative viability (HCC-366; first compound 4 µM): 0.355
- relative viability (HCC-78; first compound 0.04 µM): 0.471
- relative viability (HCC-78; first compound 0.1265 µM): 0.459
- relative viability (HCC-78; first compound 0.4 µM): 0.473
- relative viability (HCC-78; first compound 1.265 µM): 0.422
- relative viability (HCC-78; first compound 4 µM): 0.485
- relative viability (HCC-44; first compound 0.04 µM): 0.922
- relative viability (HCC-44; first compound 0.1265 µM): 0.981
- relative viability (HCC-44; first compound 0.4 µM): 0.913
- relative viability (HCC-44; first compound 1.265 µM): 0.955
- relative viability (HCC-44; first compound 4 µM): 0.959
- relative viability (NCI-H3122; first compound 0.04 µM): 0.163
- relative viability (NCI-H3122; first compound 0.1265 µM): 0.213
- relative viability (NCI-H3122; first compound 0.4 µM): 0.195
- relative viability (NCI-H3122; first compound 1.265 µM): 0.237
- relative viability (NCI-H3122; first compound 4 µM): 0.182
- relative viability (NCI-H1666; first compound 0.04 µM): 0.646
- relative viability (NCI-H1666; first compound 0.1265 µM): 0.624
- relative viability (NCI-H1666; first compound 0.4 µM): 0.643
- relative viability (NCI-H1666; first compound 1.265 µM): 0.616
- relative viability (NCI-H1666; first compound 4 µM): 0.667
- relative viability (LK-2; first compound 0.04 µM): 0.41
- relative viability (LK-2; first compound 0.1265 µM): 0.694
- relative viability (LK-2; first compound 0.4 µM): 0.796
- relative viability (LK-2; first compound 1.265 µM): 0.762
- relative viability (LK-2; first compound 4 µM): 0.748

— the supplement of paper PMC10307832
